The target of this test is T1, human OX1 receptor (Homo sapiens, UniProt O43613).
T1 sequence (O43613 1-425): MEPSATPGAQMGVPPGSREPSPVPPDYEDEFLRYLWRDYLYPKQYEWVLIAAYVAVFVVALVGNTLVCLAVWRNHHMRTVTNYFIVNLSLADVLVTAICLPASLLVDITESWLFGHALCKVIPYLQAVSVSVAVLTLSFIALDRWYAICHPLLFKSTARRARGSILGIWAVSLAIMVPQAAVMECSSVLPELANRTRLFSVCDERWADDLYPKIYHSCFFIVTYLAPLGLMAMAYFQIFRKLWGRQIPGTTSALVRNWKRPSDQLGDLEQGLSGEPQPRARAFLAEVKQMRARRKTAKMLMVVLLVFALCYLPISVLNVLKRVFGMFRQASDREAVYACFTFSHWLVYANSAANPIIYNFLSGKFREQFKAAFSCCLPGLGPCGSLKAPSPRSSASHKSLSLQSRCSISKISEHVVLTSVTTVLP
Briefly: FLIPR measurement of intracellular calcium, antagonistic activity at OX1. Particulars: pKb OX1, CHO cells with human recombinant OX1, activated with orexin-A 3 nM; 1 nM-1 μM range; modified Cheng Prusoff. In general terms: Calcium assays in cells follow changes in intracellular calcium, usually with a dye or a luminescent sensor.
Procedure: Thus the plate was loaded with the calcium dye (Fluo-4NW/probenecid in HBSS, Hepes 20 mM, pH 7,4; Invitrogen) at 37° C. for 60 min. Afterward the temperature was equilibrated at 22° C. for 15 min and the [Ca2+]i measured directly on the plate by using a fluorescent plate reader (CeliLux Perkin Elmer).
After 5 min CHO cells were activated with orexin-A, 3 nM while HEK-293 cells were activated with orexin-B, 10 nM.
The antagonistic activity has been expressed as pKb (co-logarithm of the apparent dissociation constant calculated by using the modified Cheng Prusoff equation).
On to `Cc1nc(C(=O)N2CCC3(CC3)CC2CNc2ccc(Cl)cn2)c(-c2ccccc2)s1` (racemic) [Compound 4, (±) (5-((5-chloropyridin-2-ylamino)methyl)-6-azaspiro[2.5]octan-6-yl)(2-methyl-5-phenylthiazol-4-yl)methanone], for which the Kb – broadly, the equilibrium dissociation constant of an antagonist, usually derived from a functional assay – is 25.1 nM. For `Cc1nc(C(=O)N2CCC3(CC3)CC2CNc2ccc(Cl)cn2)c(-c2ccc(F)cc2)s1` (racemic) [Compound 10, (±) (5-((5-chloropyridin-2-ylamino)methyl)-6-azaspiro[2.5]octan-6-yl)(5-(4-fluorophenyl)-2-methylthiazol-4-yl)methanone], the Kb is 39.8 nM. For `Cc1ccc(-n2nccn2)c(C(=O)N2CCC3(CC3)CC2CNc2ccc(Cl)cn2)c1` (racemic) [Compound 11, (±)(5-((5-chloropyridin-2-ylamino)methyl)-6-azaspiro[2.5]octan-6-yl)(5-methyl-2-(2H-1,2,3-triazol-2-yl)phenyl)methanone] the value was 31.6 nM; for `Cc1ccc(-c2ncccn2)c(C(=O)N2CCC3(CC3)CC2CNc2ccc(Cl)cn2)c1` (racemic) [Compound 12, (±)(5-((5-chloropyridin-2-ylamino)methyl)-6-azaspiro[2.5]octan-6-yl)(5-methyl-2-(pyrimidin-2-yl)phenyl)methanone], 50.1 nM. For `Cc1cccc(NCC2CC3(CCCC3)CCN2C(=O)c2nc(C)sc2-c2ccccc2)n1` (racemic) [Compound 54, (±)(2-methyl-5-phenylthiazol-4-yl)(7-(((6-methylpyridin-2-4amino)methyl)-8-azaspiro[4.5]decan-8-yl)methanone] the value was 63.1 nM; for `Cc1nc(C(=O)N2CCC3(CCCC3)CC2CNc2ccc(Cl)cn2)c(-c2ccccc2)s1` (racemic) [Compound 55, (±)(7-(((5-chloropyridin-2-yl)amino)methyl)-8-azaspiro[4.5]decan-8-yl)(2-methyl-5-phenylthiazol-4-yl)methanone], 39.8 nM; for `Cc1cccc(NCC2CC3(CCN2C(=O)c2nc(C)sc2-c2ccccc2)CC3)n1` (single isomer, unassigned) [Compound 3, (2-methyl-5-phenylthiazol-4-yl)(5-((6-methylpyridin-2-ylamino)methyl)-6-azaspiro[2.5]octan-6-yl)methanone], 39.8 nM. For the compound `Cc1ccc(-c2ncccn2)c(C(=O)N2CCC3(CC3)C[C@H]2CNc2ccc(Cl)cn2)c1` (single isomer, unassigned) [Compound 13], the Kb is 25.1 nM. As for `Cc1nc(C(=O)N2CCC3(CC3)C[C@H]2CNc2ccc(F)cn2)c(-c2ccccc2)s1` [Compound 16, (S)-(5-(((5-fluoropyridin-2-yl)amino)methyl)-6-azaspiro[2.5]octan-6-yl)(2-methyl-5-phenylthiazol-4-yl)methanone], the Kb was 63.1 nM.

Take `Cc1ccc(-n2nccn2)c(C(=O)N2CCC3(CC3)C[C@H]2CNc2cccc(Cl)n2)c1` [Compound 19, (S)-(5-(((6-chloropyridin-2-yl)amino)methyl)-6-azaspiro[2.5]octan-6-yl)(5-methyl-2-(2H-1,2,3-triazol-2-yl)phenyl)methanone]: the Kb was 126 nM. For `Cc1ccc(-n2nccn2)c(C(=O)N2CCC3(CC3)C[C@H]2CNc2cccc(C(F)(F)F)n2)c1` [Compound 20, (S)-(5-methyl-2-(2H-1,2,3-triazol-2-yl)phenyl)(5-(((6-(trifluoromethyl)pyridin-2-yl)amino)methyl)-6-azaspiro[2.5]octan-6-yl)methanone] the value was 50.1 nM; for `Cc1ccnc(NC[C@@H]2CC3(CCN2C(=O)c2nc(C)sc2-c2ccccc2)CC3)n1` [Compound 21, (S)-(2-methyl-5-phenylthiazol-4-yl)(5-(((4-methylpyrimidin-2-yl)amino)methyl)-6-azaspiro[2.5]octan-6-yl)methanone], 126 nM. Then `Cc1cnc(NC[C@@H]2CC3(CCN2C(=O)c2nc(C)sc2-c2ccccc2)CC3)nc1` [Compound 23, (S)-(2-methyl-5-phenylthiazol-4-yl)(5-(((5-methylpyrimidin-2-yl)amino)methyl)-6-azaspiro[2.5]octan-6-yl)methanone], with 50.1 nM; and `Cc1nc(C(=O)N2CCC3(CC3)C[C@H]2CNc2nc(F)cc(F)n2)c(-c2ccccc2)s1` [Compound 24, (S)-(5-(((4,6-difluoropyrimidin-2-yl)amino)methyl)-6-azaspiro[2.5]octan-6-yl)(2-methyl-5-phenylthiazol-4-yl)methanone], with 100 nM; and `Cc1nc(C(=O)N2CCC3(CC3)C[C@H]2CNc2cccc(F)n2)c(-c2ccccc2)s1` [Compound 25, (S)-(5-(((6-fluoropyridin-2-yl)amino)methyl)-6-azaspiro[2.5]octan-6-yl)(2-methyl-5-phenylthiazol-4-yl)methanone], with 39.8 nM. With `Cc1ccc(-n2nccn2)c(C(=O)N2CCC3(CC3)C[C@H]2CNc2ccc(C(F)(F)F)cn2)c1` [Compound 26, (S)-(5-methyl-2-(2H-1,2,3-triazol-2-yl)phenyl)(5-(((5-(trifluoromethyl)pyridin-2-yl)amino)methyl)-6-azaspiro[2.5]octan-6-yl)methanone], the Kb is 25.1 nM.

As to `Cc1ccc(-c2ncccn2)c(C(=O)N2CCC3(CC3)C[C@H]2CNc2ccc(C(F)(F)F)cn2)c1` [Compound 27, (S)-(5-methyl-2-(pyrimidin-2-yl)phenyl)(5-(((5-(trifluoromethyl)pyridin-2-yl)amino)methyl)-6-azaspiro[2.5]octan-6-yl)methanone], the Kb was 12.6 nM. With `O=C(c1ccccc1-n1nccn1)N1CCC2(CC2)C[C@H]1CNc1ccc(Cl)cn1` [Compound 28, (S)-(2-(2H-1,2,3-triazol-2-yl)phenyl)(5-(((5-chloropyridin-2-yl)amino)methyl)-6-azaspiro[2.5]octan-6-yl)methanone], the Kb was 25.1 nM. Then `O=C(c1cc(F)ccc1-n1nccn1)N1CCC2(CC2)C[C@H]1CNc1ccc(Cl)cn1` [Compound 29, (S)-(5-(((5-chloropyridin-2-yl)amino)methyl)-6-azaspiro[2.5]octan-6-yl)(5-fluoro-2-(2H-1,2,3-triazol-2-yl)phenyl)methanone], with 31.6 nM; and `O=C(c1ccccc1-c1cnccn1)N1CCC2(CC2)C[C@H]1CNc1ccc(Cl)cn1` [Compound 30, (S)-(5-(((5-chloropyridin-2-yl)amino)methyl)-6-azaspiro[2.5]octan-6-yl)(2-(pyrazin-2-yl)phenyl)methanone], with 63.1 nM. For `O=C(c1c(F)cccc1-n1nccn1)N1CCC2(CC2)C[C@H]1CNc1ccc(Cl)cn1` [Compound 31, (S)-(5-(((5-chloropyridin-2-yl)amino)methyl)-6-azaspiro[2.5]octan-6-yl)(2-fluoro-6-(2H-1,2,3-triazol-2-yl)phenyl)methanone], the Kb was 15.8 nM. Then `O=C(c1cc(F)ccc1-c1ccccn1)N1CCC2(CC2)C[C@H]1CNc1ccc(Cl)cn1` [Compound 32, (S)-(5-(((5-chloropyridin-2-yl)amino)methyl)-6-azaspiro[2.5]octan-6-yl)(5-fluoro-2-(pyridin-2-yl)phenyl)methanone], with 63.1 nM. Consider `Cc1ccc(-c2ccccn2)c(C(=O)N2CCC3(CC3)C[C@H]2CNc2ccc(Cl)cn2)c1` [Compound 33, (S)-(5-(((5-chloropyridin-2-yl)amino)methyl)-6-azaspiro[2.5]octan-6-yl)(5-methyl-2-(pyridin-2-yl)phenyl)methanone], for which the Kb was 1.58 nM. Consider `O=C(c1c(F)cccc1-c1ccccn1)N1CCC2(CC2)C[C@H]1CNc1ccc(Cl)cn1` [Compound 34, (S)-(5-(((5-chloropyridin-2-yl)amino)methyl)-6-azaspiro[2.5]octan-6-yl)(2-fluoro-6-(pyridin-2-yl)phenyl)methanone], for which the Kb is 20 nM. On to `O=C(c1ccccc1-c1ccccc1)N1CCC2(CC2)C[C@H]1CNc1ccc(Cl)cn1` [Compound 38, (S)-[1,1′-biphenyl]-2-yl(5-(((5-chloropyridin-2-yl)amino)methyl)-6-azaspiro[2.5]octan-6-yl)methanone], for which the Kb was 20 nM. For `O=C(c1ccccc1-c1ncccn1)N1CCC2(CC2)C[C@H]1CNc1ccc(Cl)cn1` [Compound 40, (S)-(5-(((5-chloropyridin-2-yl)amino)methyl)-6-azaspiro[2.5]octan-6-yl)(2-(pyrimidin-2-yl)phenyl)methanone], the Kb was 31.6 nM. For `Cc1ccc(-c2ncccn2)c(C(=O)N2CCC3(CC3)C[C@H]2CNc2cccc(Cl)n2)c1` [Compound 41, (S)-(5-(((6-chloropyridin-2-yl)amino)methyl)-6-azaspiro[2.5]octan-6-yl)(5-methyl-2-(pyrimidin-2-yl)phenyl)methanone] the value was 63.1 nM; for `Cc1ccc(-c2cnccn2)c(C(=O)N2CCC3(CC3)C[C@H]2CNc2cccc(Cl)n2)c1` [Compound 42, (S)-(5-(((6-chloropyridin-2-yl)amino)methyl)-6-azaspiro[2.5]octan-6-yl)(5-methyl-2-(pyrazin-2-yl)phenyl)methanone], 25.1 nM. In the case of `Cc1ccc(-c2cnccn2)c(C(=O)N2CCC3(CC3)C[C@H]2CNc2cccc(C(F)(F)F)n2)c1` [Compound 43, (S)-(5-methyl-2-(pyrazin-2-yl)phenyl)(5-(((6-(trifluoromethyl)pyridin-2-yl)amino)methyl)-6-azaspiro[2.5]octan-6-yl)methanone], the Kb is 10 nM.

The values are drawn from patent US8859608B2, “Spiro amino compounds suitable for the treatment of inter alia sleep disorders and drug addiction” (Rottapharm Biotech S.R.L., priority 2009, dated 2014).
